Patent publication US20230295292A1, “METHODS OF TREATING CANCERS AND ENHANCING EFFICACY OF GPRC5DXCD3 BISPECIFIC ANTIBODIES” (Janssen Biotech, Inc., priority 2021, published 2023)

Legend:
[1] = tested on: relapsed or refractory multiple myeloma; assay: Phase 1b TRIMM-2 study: best response by IMWG criteria, investigator assessment
Procedure: A phase 1b, open-label, multicenter, multi-cohort study of talquetamab in combination with subcutaneous (SC) dosing regimens of daratumumab administered to adult subjects with multiple myeloma was carried out. Two treatment combinations also included pomalidomide (and concomitant dexamethasone for at least the initial cycles). In the pomalidomide-containing treatment combinations, dexamethasone administration was required through the first 3 full immunomodulatory agent (IMiD)containing cycles to enhance IMiD-driven antimyeloma effects and serve as pretreatment medication for daratumumab and talquetamab. An overall aim of the study was to evaluate the safety of daratumumab in combination with talquetamab with or without pomalidomide (and concomitant dexamethasone at least in the initial cycles), and to evaluate preliminary antitumor activity. Safety was monitored by a Study Evaluation Team (SET).
The treatments were administered in 28-day cycles. Daratumumab was administered to all subjects by SC injection at a dose of 1800 mg as follows: weekly in Cycles 1-2, every 2 weeks (Q2W) in Cycles 3-6, and every 4 weeks thereafter. Note that a recombinant human hyaluronidase PH20 (rHuPH20) was used to decrease the injection volume required, facilitating the SC administration of daratumumab.
Daratumumab SC (Dara) was administered in combination with different dosage levels of talquetamab (Tal), including Dara 1800 mg + Tal 60 µg/kg SC weekly, Dara 1800 mg + Tal 400 µg/kg SC weekly. Dara 1800 mg + Tal 400 µg/kg SC biweekly starting Cycle 3 Day 1 (Tal 400 µg/kg SC weekly in Cycles 1-2), and Dara 1800 mg + Tal 800 µg/kg SC biweekly. Some subjects in the Dara 1800 mg + Tal 400 µg/kg SC weekly cohort switched to Tal 800 µg/kg biweekly SC dosing after Cycle 3 Day 1. Except for the 60 µg/kg talquetamab SC weekly cohort in which step-up dosing began on Cycle 1 Day 9, step-up doses for talquetamab began on Cycle 1 Day 2. When daratumumab and talquetamab were administered on the same day, daratumumab was administered first. Step-up Dose 1 of talquetamab was administered at least 20 hours after SC daratumumab. Subsequent step-up dose(s), if applicable, and first treatment dose of talquetamab were administered approximately 3 hours after SC daratumumab. Subsequent treatment doses of talquetamab was administered approximately 1 hour after SC daratumumab (when both study drugs are administered on the same day).
Disease evaluations would be performed by a central laboratory (additional samples may be collected for analysis by the local laboratory) until disease progression. […] Subjects that meet all other IMWG criteria for CR, and whose positive IFE is confirmed to be daratumumab interference, are considered complete responders. For subjects with light chain multiple myeloma, both serum and urine IFE and serum FLC assay were performed every 4 weeks. Additional serum samples may be utilized to monitor for potential daratumumab interference with the IFE and response adjudicated per IMWG-based response criteria. Quantitative immunoglobulin (QIg, e.g., IgG, IgA, IgM, IgE, and IgD), M-protein by electrophoresis (SPEP), FLC and IFE measurements in serum and urine and serum β-microglobulin were analyzed by the central laboratory. Disease progression based on one of the laboratory tests alone must be confirmed by at least 1 repeat investigation performed 1 to 3 weeks later. Disease evaluations would continue beyond relapse from CR until disease progression was confirmed. Serum and urine IFE and serum FLC assays would be performed at screening and thereafter when a CR or sCR is suspected (when serum or 24-hour urine M-protein electrophoresis [by SPEP or UPEP] are 0 or non-quantifiable). Development of hypercalcemia (corrected serum calcium >11 mg/dL) may indicate disease progression or relapse if it is not attributable to any other cause.

[2] = tested on: T cells; assay: Phase 1b TRIMM-2 study: biomarker / pharmacodynamic assessments (T cells, cytokines); assay type: in vivo, human
Description: BM-localized MM cells were identified and analysed for cell surface marker expression levels by staining 1.0×10^6 cells/mL with HuMax-003 (CD38) FITC (this antibody binds to an epitope distinct from the epitope bound by daratumumab, Janssen Pharmaceuticals), CD138 PE, CD56 PC7, CD45 Krome Orange (all Beckman Coulter), CD269 (BCMA) APC (Biolegend), CD274 (PD-L1) BV421 and CD19 APC-H7 (both Becton Dickinson). BM or PB immune cell subsets were identified and analysed for cell surface marker expression levels by staining 1.0×10^6 cells/mL with CD45 Krome Orange, CD56 PC7 (both Beckman Coulter), CD14 APC-H7, CD19 APC-H7, CD3 V450, CD4 APC-H7 or PE, CD8 FITC, CD45-RA APC. CD127 PE.Cy7, CD62L PE, CD274 […] BV421, CD16 APC, HLA-DR APC-H7 (all Becton Dickinson) and CD25 PE (Dako) or with CD4 BUV395 (BD Biosciences), CD8 BUV737 (BD
Biosciences), PD-1 BV421 (BD Biosciences), TIM-3 BV650 (BD Biosciences), CD3 BV711 (BD Biosciences), CD45RO BV786 (BD Biosciences). CD38 Humab-003-FITC (Janssen). CD45RA PerCP-Cy5.5 (BD Biosciences). HLA-DR PE (BD Biosciences), LAG-3 PE-eF610 (ThermoFisher), CD25 PE-Cy7 (BD Biosciences), CCR7 AF647 (BD Biosciences), CD127 APC-eF780 (ThermoFisher). All BM samples were analysed within 24 hours from the time the sample was collected.
Flow cytometry was performed using a 7-laser LSRFORTESSA (Becton Dickinson). Fluorescent labeled beads (CS&T beads, Becton Dickinson) were used daily to monitor the performance of the flow cytometer and verify optical path and stream flow. […] Compensation beads were used to determine spectral overlap, and compensation was automatically calculated using Diva software. Flow cytometry data were analyzed using FACS Diva software.
Cytokines [interferon-gamma (IFN-γ), interleukin (IL)-2, IL-6, IL-8, IL-10, and tumor necrosis factor-alpha (TNF-α)] in the cell culture supernatants were analyzed using V-Plex proinflammatory Panel 1 Human Kit (Meso Scale Diagnostics), according to the manufacturer’s protocol. […]

[3] = Phase 1b TRIMM-2 study: pharmacokinetics (serum concentrations); assay type: in vivo, human; settings: in the presence of daratumumab
Procedure: Blood and serum or plasma samples were collected for assessments of pharmacokinetics and immunogenicity (e.g., antibodies to daratumumab, rHuPH20, or talquetamab). Selection of the dose regimen (dose level and frequency) for dose expansion was determined based on the pharmacokinetic and pharmacodynamic information obtained during dose escalation. A sample for the pharmacokinetic and immunogenicity analysis was collected at scheduled time and any time a suspected IRR or CRS event (in case of a CRS event, samples were collected at onset, 24 hours and 72 hours) was observed during the study.
Each serum sample was evenly divided into 3 aliquots (1 for pharmacokinetics and immunogenicity of daratumumab, 1 for pharmacokinetics and immunogenicity of talquetamab, and 1 backup). […] For the pharmacokinetics analysis, serum samples were analyzed to determine concentrations of daratumumab and talquetamab using validated, specific, and sensitive assay methods. Pharmacokinetic parameters include, but are not limited to, area under the curve (AUC)(0-t), AUCtau, Cmax, and Tmax would be calculated if sufficient data were available for estimation. […] For the rHuPH20 immunogenicity assessments, plasma samples were screened for antibodies binding to rHuPH20 and were assessed in confirmatory and titer assays as necessary.

[4] = Tal 400 µg/kg (SC3 and SC6) + 800 µg/kg (SC7 and SC15) with Dara 1800 mg, 56 response evaluable subjects
[5] = Tal Total (all Tal cohorts with Dara, with or without Pom), n=108 evaluable

## talquetamab
[1]; Overall Total, n=186 evaluable
  CR or better (sCR + CR): 46 (24.7%)
  Clinical benefit (Overall response + MR): 146 (78.5%)
  Complete response (CR): 28 (15.1%)
  Minimal response (MR): 0
  Not evaluable (NE): 1 (1.2%)
  Overall response (sCR+CR+VGPR+PR): 146 (78.5%)
  Partial response (PR): 22 (11.8%)
  Progressive disease (PD): 11 (5.9%)
  Stringent complete response (sCR): 18 (9.7%)
  VGPR or better (sCR + CR + VGPR): 124 (66.7%)
  Very good partial response (VGPR): 78 (41.9%)
  Very good partial response (VGPR), Unconfirmed: 11
[1]; [4]
  CR or better (sCR + CR): 16 (28.6%)
  Clinical benefit (Overall response + MR): 45 (80.4%)
  Complete response (CR): 9 (16.1%)
  Complete response (CR), Unconfirmed: 3
  Minimal response (MR): 0
  Not evaluable (NE): 0
  Overall response (sCR+CR+VGPR+PR): 45 (80.4%)
  Partial response (PR): 9 (16.1%)
  Partial response (PR), Unconfirmed: 4
  Progressive disease (PD): 3 (5.4%)
  Stringent complete response (sCR): 7 (12.5%)
  Stringent complete response (sCR), Unconfirmed: 0
  VGPR or better (sCR + CR + VGPR): 36 (64.3%)
  Very good partial response (VGPR): 20 (35.7%)
  Very good partial response (VGPR), Unconfirmed: 5
[1]; [5]
  CR or better (sCR + CR): 28 (25.9%)
  Clinical benefit (Overall response + MR): 89 (82.4%)
  Complete response (CR): 14 (13.0%)
  Minimal response (MR): 0
  Not evaluable (NE): 0
  Overall response (sCR+CR+VGPR+PR): 89 (82.4%)
  Partial response (PR): 18 (16.7%)
  Progressive disease (PD): 4 (3.7%)
  Stringent complete response (sCR): 14 (13.0%)
  VGPR or better (sCR + CR + VGPR): 71 (65.7%)
  Very good partial response (VGPR): 43 (39.8%)
  Very good partial response (VGPR), Unconfirmed: 13
[2]; FIG. 4, following talquetamab dosing in the presence of daratumumab 1800 mg
  Frequency of CD38+ T cells: increase
[2]; after the initial doses of talquetamab despite concurrent daratumumab dosing
  CD38+ CD8+ T cells: induction
[3]
  Pharmacokinetic profile of talquetamab: consistent with the profile of observed in the phase 1 talquetamab monotherapy

## daratumumab: anti-CD38 monoclonal antibody approved for MM treatment; HC SEQ ID NO: 13, LC SEQ ID NO: 14; given SC with rHuPH20 [reference compound]
[2]; after initial daratumumab dosing on C1D1
  Proportion of CD38+/CD8+ T cells: declined
